Source: US6653081B2, “Methods for monitoring antiretroviral therapy and guiding therapeutic decision in the treatment of HIV/AIDS” (ViroLogic, Inc., priority 2000, dated 2003)

Legend:
RTV-010835 = experiment: Phenotypic susceptibility assay, RTV-010835; type: cell-based, HIV; settings: patient CCTG-2165, week 15; K103N and M230L present
Text: (§1) The resistance test vectors containing a functional luciferase gene cassette were constructed and host cells were transfected with the resistance test vector DNA. The resistant test vectors contained patient-derived reverse transcriptase and protease sequences that were either susceptible or resistant to the antiretroviral agents, such as nucleoside reverse transcriptase inhibitors, (NRTIs) non-nucleoside reverse transcriptase inhibitors […] protease inhibitors. The resistance test vector viral particles produced by transfecting the resistance test vector DNA into host cells, either in the presence or absence of PRIs, were used to infect target host cells grown either in the absence of NRTIs or NNRTIs, or in the presence of increasing concentrations of the drug. The amount of luciferase activity produced in infected target host cells in the presence of varying concentrations of drug was compared to the amount of luciferase produced in infected target host cells in the absence of drug. […] The IC50 values were determined by plotting percent drug inhibition vs. log10 drug concentration. Stimulation of viral replication was measured as the percent increase in luciferase activity detected when infection occurs in the presence of drug as compared to in the absence of drug.
(§2) Host cells were seeded in 10-cm-diameter dishes and were transfected several days after plating with resistance test vector plasmid DNA and the envelope expression vector. […] HIV capsid protein (p24) levels in the harvested cell culture media were determined by an EIA method as described by the manufacturer (SAIC; Frederick, Md.). […] The inhibitory effect of the drug was determined using the following equation: […]
(§3) where RLUluc [drug] is the Relative Light Unit of luciferase activity in infected cells in the presence of drug, and RLUluc is the Relative Light Unit of luciferase activity in infected cells in the absence of drug. […] The percent luciferase stimulation is the negative of the % inhibition calculated using the formula above. […]

RTV-I270S = experiment: Phenotypic susceptibility assay, RTV-I270S; type: cell-based, HIV-1; settings: site-directed I270S alone
Text: (§4) The resistance test vectors containing a functional luciferase gene cassette were constructed and host cells were transfected with the resistance test vector DNA. The resistant test vectors contained patient-derived reverse transcriptase and protease sequences that were either susceptible or resistant to the antiretroviral agents, such as nucleoside reverse transcriptase inhibitors, (NRTIs) non-nucleoside reverse transcriptase inhibitors […] protease inhibitors. The resistance test vector viral particles produced by transfecting the resistance test vector DNA into host cells, either in the presence or absence of PRIs, were used to infect target host cells grown either in the absence of NRTIs or NNRTIs, or in the presence of increasing concentrations of the drug. The amount of luciferase activity produced in infected target host cells in the presence of varying concentrations of drug was compared to the amount of luciferase produced in infected target host cells in the absence of drug. “Drug resistance” was measured as the amount of drug required to inhibit by 50% the luciferase activity detected in the absence of drug (inhibitory concentration 50%, IC50). The IC50 values were determined by plotting percent drug inhibition vs. log10 drug concentration. Stimulation of viral replication was measured as the percent increase in luciferase activity detected when infection occurs in the presence of drug as compared to in the absence of drug.
(§5) Host cells were seeded in 10-cm-diameter dishes and were transfected several days after plating with resistance test vector plasmid DNA and the envelope expression vector. Transfections were performed using a calcium-phosphate precipitation procedure. The cell culture media containing the DNA precipitate was replaced with fresh medium, from one to 24 hours, after transfection. Cell culture media containing resistance test vector viral particles was harvested one to four days after transfection and was passed through a […] filter before being used to infect target host cells, or being stored at −80° C. HIV capsid protein (p24) levels in the harvested cell culture media were determined by an EIA method as described by the manufacturer (SAIC; Frederick, Md.). Before infection, target cells (293 and 293/T) were plated in cell culture media. Control infections were performed using cell culture media from mock transfections (no DNA) or transfections containing the resistance test vector plasmid DNA without the envelope expression plasmid. One to three or more days after infection, the media was removed and cell lysis buffer (Promega) was added to each well. Cell lysates were assayed for luciferase activity (FIG. 3). The inhibitory effect of the drug was determined using the following equation:
(§6) % luciferase inhibition=1−(RLUluc[drug]÷RLUluc)×100
(§7) where RLUluc [drug] is the Relative Light Unit of luciferase activity in infected cells in the presence of drug, and RLUluc is the Relative Light Unit of luciferase activity in infected cells in the absence of drug. IC50values were obtained from the sigmoidal curves that were generated from the data by plotting the percent inhibition of luciferase activity vs. the log10 drug concentration. The percent luciferase stimulation is the negative of the % inhibition calculated using the formula above.
A resistance test vector containing all of the mutations present in […] except for the I270S (RTV-013522/270I) was constructed and tested using the phenotypic assay described earlier. The results were compared to those determined using the parent RTV-013522. We determined the pattern of phenotypic susceptibility to the NNRTIs, delavirdine, nevirapine and efavirenz, in the reverted vector RTV-013522/270I. […] In this patient sample the correlation of drug-dependent stimulation of viral replication with the mutation at I270S is very striking. […]

RTV-K103N/I135T/V245E = experiment: Phenotypic susceptibility assay, RTV-K103N/I135T/V245E; type: cell-based, HIV-1; settings: site-directed K103N + I135T + V245E
Text: as §4, §5, §6, §7
A resistance test vector containing three mutations, K103N, I135T and V245E (RTV-K103N/I135T/V245E) was constructed and tested in the phenotypic assay described earlier. The results were compared to those determined using a genetically defined resistance test vector that was wild type at positions 103, 135 and 245. We determined the pattern of phenotypic susceptibility to the NNRTIs, delavirdine, nevirapine and efavirenz, in RTV-K103N.

RTV-007130 = experiment: Phenotypic susceptibility assay, RTV-007130; type: cell-based, HIV; settings: patient 007130; for decrease in susceptibility: 245 with multiple other mutations
Text: as §4, §5, §6, §7
A resistance test vector was constructed as described in Example 1 from a virus sample obtained from patient 007130. The prior and current treatment regimens are unknown. Isolation of viral RNA and RT/PCR was used to generate a patient derived segment (PDS) that comprised viral sequences coding for all of PR and aa 1-313 of RT. The PDS were inserted into an indicator gene viral vector to generate a resistance test vector designated RTV-007130. RTV-007130 was then tested in a phenotypic assay to determine accurately and quantitatively the level of susceptibility to a panel of anti-retroviral drugs. […]

RTV-1033-3/181C = experiment: Phenotypic susceptibility assay, RTV-1033-3/181C; type: cell-based, HIV; settings: RTV-1033-3 plus Y181C
Text: as §4
Host cells were seeded in 10-cm-diameter dishes and were transfected several days after plating with resistance test vector plasmid DNA and the envelope expression vector. Transfections were performed using a calcium-phosphate precipitation procedure. […] HIV capsid protein (p24) levels in the harvested cell culture media were determined by an EIA method as described by the manufacturer (SAIC; Frederick, Md.). […] The inhibitory effect of the drug was determined using the following equation: […]
where RLUluc [drug] is the Relative Light Unit of luciferase activity in infected cells in the presence of drug, and RLUluc is the Relative Light Unit of luciferase activity in infected cells in the absence of drug. […] The percent luciferase stimulation is the negative of the % inhibition calculated using the formula above.
A resistance test vector containing all of the mutations present in RTV-1033-3, in addition to Y181C (RTV-1033-3/181C) was constructed and tested using the phenotypic assay described earlier. The results were compared to those determined using the parent RTV-1033-3. We determined the pattern of phenotypic susceptibility to the NNRTIs, delavirdine, nevirapine and efavirenz, in the mutated vector, RTV-1033-3/181C.

RTV-011073/241V/277T = experiment: Phenotypic susceptibility assay, RTV-011073/241V/277T; type: cell-based, HIV; settings: RTV-011073 with 241 and 277 reverted
Text: as §1, §2, §3

RTV-012090 = experiment: Phenotypic susceptibility assay, RTV-012090; type: cell-based, HIV; settings: patient CCTG-1025, week 48; for decrease in susceptibility: K101E, K103N, G190S, M230L
Text: as §4, §5, §6, §7
Resistance test vectors were constructed as described in Example 1 from virus samples obtained from an individual patient at two separate time points over a 48-week period. […]

| SMILES | decrease in susceptibility (RTV-010835) [fold] | drug-dependent stimulation of viral replication (RTV-I270S) [%] | reductions in susceptibility compared to wild type control RTV (RTV-I270S) [fold] | drug-dependent stimulation of viral replication (RTV-K103N/I135T/V245E) | reductions in susceptibility compared to wild type control RTV (RTV-K103N/I135T/V245E) [fold] | drug-dependent stimulation of viral replication (RTV-007130) [%] | decrease in susceptibility (RTV-007130) [fold] | reduction in susceptibility compared to wild type control RTV (RTV-1033-3/181C) [fold] | reductions in susceptibility compared to wild type control RTV (RTV-011073/241V/277T) [fold] | drug-dependent stimulation of viral replication (RTV-012090) [%] | decrease in susceptibility (RTV-012090) [fold] | drug-dependent stimulation of viral replication (RTV-1033-3/181C) [%] |
| --- | --- | --- | --- | --- | --- | --- | --- | --- | --- | --- | --- | --- |
| CC(C)Nc1cccnc1N1CCN(C(=O)c2cc3cc(NS(C)(=O)=O)ccc3[nH]2)CC1 [delavirdine] | > 250 | ~60 | 13 | ~20% | 169 | ~30 | > 250 | > 250 | 50 | ~30 | 144 |  |
| O=C1Nc2ccc(Cl)cc2[C@@](C#CC2CC2)(C(F)(F)F)O1 [efavirenz] | 270 | ~40 | 4 | no drug-dependent stimulation and not | 93 | ~40 | > 450 | > 450 | 54 | ~40 | > 450 | ~100 |
| Cc1ccnc2c1NC(=O)c1cccnc1N2C1CC1 [nevirapine] | > 600 | ~60 | 15 | ~15% | 244 | ~50 | > 600 | > 600 | 126 | ~80 | > 600 |  |
